Experimental data reported in US20240285587A1, “NOVEL THERAPEUTIC AGENT THAT SUPPRESSES METASTASIS AND PROLIFERATION OF OSTEOSARCOMA AND GLIOMA” (JAPANESE FOUNDATION FOR CANCER RESEARCH, priority 2021, published 2024).
“Also recorded” adds a separate entry of the source.

Legend:
Onda7 cells = assay: Glioblastoma intracranial xenograft model (Onda7 with Akaluc luciferase), IVIS imaging; type: in vivo, mouse; conditions: oral 50 mg/kg or 100 mg/kg, 5 days on/2 days off from 3 weeks after transplantation; from 2 weeks after initiation, even for 50 mg/kg
Experimental: Examination was carried out to determine whether an LPAR1 antagonist exerts antitumor effect even for glioblastoma. Into each female SCID-beige mouse, 2×10^5 Onda7 cells with Akaluc luciferase introduced therein were intracranially transplanted. Three weeks after the transplantation, oral administration according to a dosing schedule of continuous administration of the LPAR1 antagonist BMS-986020 of 50 mg/kg or 100 mg/kg for 5 consecutive days and withdrawal for 2 days was initiated (FIG. 11A). For tumor volume, the enzymatic activity of AkaLuc luciferase stably expressed in Onda7 cells was quantified with an IVIS imaging system (FIG. 11B).

[1] = tested on: human glioblastoma cells Onda7, YKG-1, and 42-MG-BA; assay: Glioblastoma cell viability with LPAR1 antagonists, CellTiter-Gro; type: cell-based; conditions: different concentrations, 72 hours; Onda7, YKG-1, 42-MG-BA
Experimental: Next, examination was carried out to determine whether LPAR1 antagonists had effects on viabilities of glioblastoma cells. On a 96-well plate, 1500 to 3000 cells of each of the human glioblastoma cells Onda7, YKG-1, and 42-MG-BA were seeded and treated with any of the LPAR1 antagonists Ki16425, BMS-986020, and ONO-7300243 in different concentrations, and the cell viabilities 72 hours thereafter were determined with CellTiter-Gro reagent (FIG. 10A).

osteosarcoma cells G-292 = assay: Osteosarcoma G-292 subcutaneous xenograft model, tumor volume; type: in vivo; conditions: oral 30 mg/kg, 5 consecutive days and withdrawal for 2 days from Day 1, from Day 14, SCID-beige mouse
Experimental: Into each female SCID-beige mouse, 8.2×10^5 cells of the osteosarcoma cells G-292 were subcutaneously transplanted (Day 0), and on the day after the transplantation (Day 1) oral administration according to a dosing schedule of continuous administration of the LPAR1 antagonist BMS-986020 of 30 mg/kg for 5 consecutive days and withdrawal for 2 days was initiated (FIG. 8A). The proliferation of tumor was analyzed by measuring the major axis and minor axis of tumor and calculating the tumor volume as major axis (mm)×[minor axis (mm)]^2×½.

[2] = tested on: human glioblastoma cells Onda7, YKG-1, and 42-MG-BA; assay: Transwell chamber migration ability of glioblastoma cells with LPA; type: cell-based; conditions: 24 hours
Experimental: Accordingly, the effects of LPAR1 antagonists to suppress metastasis and cell proliferation are also expected to be exerted for glioma. In view of the fact that glioblastoma is the highest malignancy tumor among gliomas as described above, migration ability with addition of LPA was analyzed with glioblastoma cell strains. Analysis was performed to determine whether the mobility of glioblastoma cells is augmented in the presence of LPA. In a Transwell chamber, the human glioblastoma cells Onda7 (obtained from JCRB Cell Bank), YKG-1 (obtained from JCRB Cell Bank), and 42-MG-BA (obtained from DSMZ) were seeded at 1×10^5 cells each, with addition of 100 nM LPA as a migration factor to the underlying chamber, and 24 hours thereafter cells that migrated to the underlying chamber were stained with crystal violet and quantified. Before being collected, the cells were pretreated with 100 nM Ki16425, which is an LPAR antagonist, for 1 hour, and subjected to analysis of migration ability still in the presence of 100 nM Ki16425.

LPAR3 = biological target: T1, LPAR3 (Homo sapiens, UniProt Q9UBY5); conditions: cited from earlier work
T1 sequence (Q9UBY5 1-353): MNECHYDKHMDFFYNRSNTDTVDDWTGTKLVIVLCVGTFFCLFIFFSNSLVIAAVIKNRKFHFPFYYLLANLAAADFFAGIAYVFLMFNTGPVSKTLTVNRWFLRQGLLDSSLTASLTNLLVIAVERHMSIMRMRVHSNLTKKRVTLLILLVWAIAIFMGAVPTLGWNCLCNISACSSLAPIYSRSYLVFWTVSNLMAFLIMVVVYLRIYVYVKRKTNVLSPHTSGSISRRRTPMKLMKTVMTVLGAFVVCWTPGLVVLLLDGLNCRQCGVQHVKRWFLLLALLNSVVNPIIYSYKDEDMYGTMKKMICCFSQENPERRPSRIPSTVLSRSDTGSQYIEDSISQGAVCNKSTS

LPAR1 = LPAR1 (Homo sapiens, UniProt Q92633); conditions: cited from earlier work
Chain of LPAR1 (Q92633 whole entry, species assumed): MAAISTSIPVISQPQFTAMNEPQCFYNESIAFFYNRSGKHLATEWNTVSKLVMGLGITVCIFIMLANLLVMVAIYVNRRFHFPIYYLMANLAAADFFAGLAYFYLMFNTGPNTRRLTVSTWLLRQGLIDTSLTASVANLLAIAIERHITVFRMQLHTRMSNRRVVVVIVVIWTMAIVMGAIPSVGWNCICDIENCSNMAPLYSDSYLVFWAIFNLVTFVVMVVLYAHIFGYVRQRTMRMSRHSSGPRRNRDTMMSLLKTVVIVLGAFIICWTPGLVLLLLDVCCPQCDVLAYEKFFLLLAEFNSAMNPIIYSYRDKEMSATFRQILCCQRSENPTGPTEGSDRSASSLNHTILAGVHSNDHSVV

[3] = tested on: MG-63, HuO9, or G-292 cells; assay: Transwell chamber migration ability of osteosarcoma cells with LPA as chemoattractant; type: cell-based, human; conditions: 4 to 6 hours, MG-63, HuO9, G-292
Experimental: Next, the influence of LPA on migration ability and invasive ability was analyzed (FIG. 3C). Analysis of migration ability was carried out by using a Transwell chamber (Corning Incorporated, 8.0 μm pore). In an insert, 1×10^5 MG-63, HuO9, or G-292 cells suspended in 0.3 mL of serum-free MEM medium were seeded with 10 nM LPA as a chemoattractant in 1.25 mL of serum-free MEM medium put in the lower chamber, left to stand for 4 to 6 hours and then fixed, and subjected to analysis of migration ability (LPA). Separately, cells after being pretreated with 100 nM Ki16425 (Santa Cruz Biotechnology, Inc.), which is an LPAR antagonist, for 1 hour were collected, seeded in an insert, and subjected to analysis of migration ability in the presence of 100 nM Ki16425 (LPA+Ki16425).

[4] = tested on: osteosarcoma cells MG-63, HuO9, and G-292; assay: Matrigel Invasion Chamber invasive ability of osteosarcoma cells with platelet releasate; type: cell-based, human; conditions: cells treated with Ki16425 in advance (100 nM), platelet releasate in underlying chamber, 22 to 24 hours
Experimental: The osteosarcoma cells MG-63, HuO9, and G-292 were each seeded in an insert (upper chamber) of a Matrigel Invasion Chamber (Corning Incorporated) at 1.5×10^5 cells/0.5 mL with the platelet releasate put in the lower chamber, and left to stand at 37° C. for 22 to 24 hours, and then cells on the top surface of the insert were completely wiped away, fixation was performed with 4% paraformaldehyde, and cells on the bottom surface of the membrane of the insert, i.e., invaded cells were stained with 1% crystal violet (FIG. 1B).
(§1) In addition, analysis of invasive ability was carried out by using a Matrigel Invasion Chamber in the same manner as for FIG. 1C (FIG. 3D). […] Accordingly, the reduction in migration ability and invasive ability due to Ki16425 was confirmed not to be caused by cytotoxicity to the cells.

LPAR2 = LPAR2 (Homo sapiens, UniProt Q9HBW0); conditions: cited from earlier work
Chain of LPAR2 (Q9HBW0 whole entry, species assumed): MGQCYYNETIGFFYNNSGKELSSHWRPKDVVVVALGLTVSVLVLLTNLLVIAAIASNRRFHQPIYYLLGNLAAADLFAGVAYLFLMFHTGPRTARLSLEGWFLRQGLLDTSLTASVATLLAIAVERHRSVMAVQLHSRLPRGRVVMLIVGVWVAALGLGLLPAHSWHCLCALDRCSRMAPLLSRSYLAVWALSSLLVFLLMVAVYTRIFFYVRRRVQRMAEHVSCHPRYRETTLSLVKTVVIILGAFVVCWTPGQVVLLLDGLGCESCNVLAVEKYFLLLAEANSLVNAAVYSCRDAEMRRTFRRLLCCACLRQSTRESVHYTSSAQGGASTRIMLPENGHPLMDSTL

G-292 and MG-63 cells = assay: Cell viability / cytotoxicity of osteosarcoma cells with Ki16425 (FIG. 3E); type: cell-based, human
Experimental: as §1

HuO9/Akaluc cells = assay: Lung metastasis mouse model, intravenously injected HuO9/Akaluc cells, bioluminescent imaging; type: in vivo
Experimental: Into each female SCID-beige mouse (C.B-lgh-1b/GbmsTac-Prkdc^scid-Lyst^bgN7, Charles River Laboratories Japan, Inc.), 1×10^6 MG-63/Akaluc/sgCTRL or MG-63/Akaluc/sgLPAR #1 cells were intravenously injected, 3 hours and 7 days after, 100 μL of 5 mM AkaLumine-HCL was intraperitoneally injected and in vivo luminescence imaging (bioluminescent imaging, BLI) was carried out. The BLI was carried out by using an IVIS imaging system (PerkinElmer, Inc.). […] On the day of intravenous injection of cells (Day 0), the both types of cells were captured in lungs to the same degree.
Next, effects of an LPAR1 antagonist was examined. Analysis with a mouse model was carried out by using ONO-7300243 (Cayman Chemical Company), which is one of LPAR1 inhibitors. […] In the experiment, ONO-7300243 was used at different doses of 10 mg/kg and 30 mg/kg.
The BLI was carried out for 1.5 to 3 hours, 1 day, and 2 days after the administration (FIG. 6B). Immediately after the administration, it was observed that HuO9/Akaluc cells were captured in lungs at any dose.

MG-63 cells = assay: Immunostaining of phosphorylated AKT and F-actin in LPA-treated osteosarcoma cells; type: cell-based, human; conditions: 100 nM LPA for 4 hours, serum-free MEM
Experimental: LPA receptors are G-protein-coupled receptors, and LPAR1 is known to activate three G proteins, Gαi/0, Gαq/11, and Gα12/13, and to activate a signal transduction system including a PI3K/AKT pathway. MG-63 cells were cultured with serum-free MEM medium overnight, then treated with 100 nM LPA for 4 hours, immunostained through a conventional method with an anti-phosphorylated AKT antibody (an antibody to detect phosphorylation of S473), rhodamine-labeled phalloidin (for binding to F actin), and Hoechst 33342 (for staining nuclei), and observed with a microscope (FIG. 3B). […] Although results are not shown herein, time-lapse analysis with a microscope was carried out to analyze effects of LPA on osteosarcoma cells, and it was observed that osteosarcoma cells formed numerous protrusions (pseudopodia) as a result of the LPA treatment.

Cc1noc(-c2ccc(-c3ccc(C4(C(=O)O)CC4)cc3)cc2)c1NC(=O)O[C@H](C)c1ccccc1 [BMS-986020]
proliferation of glioblastoma cells / relative tumor volume (Onda7 cells): almost comparable to that at the transplantation | cell viabilities [1]: Reduced cell viabilities | tumor volume / tumor proliferation (osteosarcoma cells G-292; 30 mg/kg): significant tumor proliferation-suppressing effect | tumor volume / tumor proliferation (osteosarcoma cells G-292; listed as BMS986020, 30 mg/kg): tumor proliferation is suppressed

Cc1noc(-c2ccc(CSCCC(=O)O)cc2)c1NC(=O)OC(C)c1ccccc1Cl (stereo not drawn) [Ki16425]
migration ability ([2]; 100 nM Ki16425 (1 hour pretreatment and during assay), 100 nM LPA): largely reduced migration ability | inhibitory effect to LPAR3 (LPAR3): exhibits inhibitory effect | inhibitory effect to LPAR1 (LPAR1): exhibits inhibitory effect | migration ability ([3]; 100 nM Ki16425 (1 hour pretreatment and during assay), 10 nM LPA in lower chamber): cancellation of the effects of LPA; also recorded: largely reduced migration ability | cell viabilities [1]: Reduced cell viabilities | invasive ability [4]: cancellation of the effects of platelet releasate; also recorded: largely reduced invasive ability | inhibitory effect to LPAR2 (LPAR2): exhibits inhibitory effect | cytotoxicity (G-292 and MG-63 cells; 100 nM, 4 to 6 hours (migration) or 22 to 24 hours (invasion)): no cytotoxicity was found | cell viabilities (G-292 and MG-63 cells; cultured for 72 hours, Ki16425 at 500 nM or more, G-292 and MG-63): reduced cell viabilities

COc1cc(C(=O)N(CCCc2ccccc2)Cc2ccc(CC(=O)O)cc2)cc(OC)c1C [ONO-7300243]
Total Flux measured with the IVIS (HuO9/Akaluc cells; Day 1, 30 mg/kg administration group vs solvent administration group): significant difference | Total Flux measured with the IVIS (HuO9/Akaluc cells; Day 2, 10 mg/kg administration group vs 30 mg/kg administration group): significant difference | Total Flux measured with the IVIS (HuO9/Akaluc cells; day of injection of cells, among the groups): no significant difference | osteosarcoma cells captured in lungs (BLI) / lung metastasis (HuO9/Akaluc cells; oral 10 mg/kg and 30 mg/kg before i.v. HuO9/Akaluc cells, a day or two later, vs solvent administration group): lung metastasis is suppressed; also recorded: reduction of osteosarcoma cells captured in lungs | cell viabilities [1]: Reduced cell viabilities

lysophosphatidic acid [LPA]
migration ability (effect of LPA) ([2]; 100 nM LPA as migration factor): migration ability was largely enhanced | migration ability (effect of LPA) ([3]; 10 nM LPA as chemoattractant): migration ability largely enhanced | phosphorylated AKT (S473) (MG-63 cells): Activated AKT was found
